Usually inhibition stands for the relative decrease from the control value, in per cent.

Where two headings read alike, the source gives them in different places.

Experiment [1] has as its system H2O2-induced angiogenesis in the CAM model. Nature of the experiment: H2O2-induced angiogenesis in the chick chorioallantoic membrane (CAM) model. It counts as in vivo. The settings on record: for inhibition at 88 µM: Gallus gallus. On the procedure:
Neovascularization was examined by previously described methods (see references at the end of Example 5). Ten-day-old fertilized chicken eggs were incubated at 37° C. with 55% relative humidity. In the dark with the help of candling lamp and using a hypodermic needle a small hole was punctured in the shell covering the air sac. A second hole was punctured on the wider side of the egg above an avascular area of the embryonic membrane. An artificial air sac was created below the second hole by applying gentle vacuum to the first hole using a small rubber squeeze bulb. The vacuum caused the separation of chorioallantoic membrane (CAM) from the shell. An approximately 1.0 cm^2 widow was cut in the shell over the dropped CAM with the use of a mini drill. The underlying CAM was accessed through this small window.
Filter disks were punched using a small puncher from filter paper #1 (Whatman International, United Kingdom). Filter disks were soaked in 3 mg/ml cortisone acetate solution (95% ethanol and water) and air-dried under sterile condition. For inducing angiogenesis, sterile filter disks were saturated with bFGF (1 μg/ml) or other pro-angiogenesis factors and control disks were saturated with PBS without Calcium and Magnesium.
Using sterile forceps one filter/CAM was placed from the window. The window was sealed with Highland brand transparent tape. After 24 hr, 10-25 µl of test agent (inhibitor) was injected intravenously or added topically into the CAM membrane of bFGF or other pro-angiogenesis factors stimulated CAMs. • Control filter disks received PBS without Calcium and Magnesium. • After 48 hr, CAM tissue directly beneath filter disk was harvested and placed in a 35-mm Petri dish. Eight-Ten eggs/treatment group was used.
A pro-angiogenic agent (see Examples, below) was added to induce new blood vessel branches on the CAM of 10-day old embryos. Sterile disks of #1 filter paper (Whatman International, United Kingdom) were pre-treated with 3 mg/ml cortisone acetate, and air dried under sterile conditions. The disks were then suspended in PBS (Phosphate Buffered Saline) and placed on growing CAMs. Filters treated with TPH (TEMPOL-H) or TEMPOL and/or H2O2 or TPH and/or bFGF or VEGF were placed on the first day of the 3-day incubation.
Digital Images and Microscopic analysis of CAM sections: CAM sections from Petri dish were examined using SV6 stereomicroscope (Karl Zeiss) at 50× magnification. Digital images were captured using a 3-CCD color video camera system (Toshiba America, New York, N.Y.). These images were analyzed using Image-Pro Plus software (Media Cybernetics). The number of branch points in blood vessels within the circular region superimposed to the area of a filter disk was counted for each section. After incubation at 37° C. with 55% relative humidity for 3 days, the CAM tissue directly beneath each filter disk was resected from control and treated CAM samples. Tissues were washed three times with PBS. Sections were placed in a 35-mm Petri dish (Nalge Nunc; Rochester, N.Y.) and were examined under a SV6 stereomicroscope (Karl Zeiss; Thornwood, N.Y.) at 50× magnification. Digital images of CAM sections adjacent to filters were collected using a 3-CCD color video camera system (Toshiba America; New York, N.Y.) and analyzed with the Image-Pro Plus software (Media Cybernetics; Silver Spring, Md.). The number of vessel branch points contained in a circular region equal to the area of a filter disk was counted for each section. Percent inhibition data are expressed as the quotient of the experimental value minus the negative control value divided by the difference between the positive control value and the negative control value. One image was counted in each CAM preparation, and findings from eight CAM preparations were analyzed for each treatment condition. In addition, each experiment was performed three times. […]

The next experiment relates to lens endothelial cells. The following applies: in vitro; Sasaki et al., 1998; cited from earlier work.
Experiment [2] concerns selenite induced cataract. The following applies: mice; cited from earlier work.
The subject of another experiment is mouse V79 cells. The settings on record: Mitchell et al., 2000; cited from earlier work.

Regarding `CC1(C)CC(O)CC(C)(C)N1[O]` [TEMPOL, 4-hydroxy-2,2,6,6-tetramethylpiperidine-N-oxyl radical, reference compound], in experiment [1] (CAM model, Tables 1A and 1B), the “inhibition of angiogenesis induced by super-maximal concentrations of H2O2” value is reported as “effectively inhibited”. Moreover, the inhibition at 88 µM came to 32.1 ± 14.1% in experiment [1] (read-out: % Inhibition ± SD, H2O2 (88 μM, 30 ng) + 100 μg test agent); 32.5 ± 12.1% in experiment [1] (read-out: % Inhibition ± SD, H2O2 (88 μM, 30 ng) + 200 μg test agent); 30.1 ± 8.7% in experiment [1] (read-out: % Inhibition ± SD, H2O2 (88 μM, 30 ng) + 400 μg test agent); 60.9 ± 3.2% in experiment [1] (read-out: % Inhibition ± SD, H2O2 (88 μM, 30 ng) + 800 μg test agent). For the same molecule, the “prevention of X-ray radiation damage to lens endothelial cells” value in the experiment with lens endothelial cells was “prevented X-ray radiation damage”. Further, the “prevention of selenite induced cataract” value in experiment [2] is recorded as “not effective”. Also, the “radioprotection of mouse V79 cells” value in the experiment on mouse V79 cells was “concentration dependent”.

The record behind these values is patent US20070197599A1, “HYDROXYLAMINES AND DERIVATIVES AS ANTI-ANGIOGENIC AGENTS” (priority 2006, published 2007).
